Assay results reported in ChEMBL document CHEMBL1201862, “PubChem BioAssay data set” (2004).
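In this assay, cells in 96-well plates receive the compound at five concentrations for 48 hours. Endpoints are linearly interpolated between the surrounding concentrations. GI50 is the concentration that inhibits growth by half.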 The source made the active and inactive calls. Rule as the data show it: active = GI50 up to about 1.1 µM and inactive = higher.

Assays:
Experiment in all cases: growth of human tumour cells (NCI), 48 h
DMS-273 = test system: DMS-273
SNB-78 = test system: SNB-78
DMS-114 = test system: DMS-114
XF498 = test system: XF498
HOP-18 = test system: HOP-18
M19-MEL = test system: M19-MEL
DLD-1 = test system: DLD-1
LXFL 529 = test system: LXFL 529
RXF 631 = test system: RXF 631

Measured: GI50

N/C(=N\O)N/N=C/c1ncccc1O
inactive: DMS-273 7.28 µM | SNB-78 > 88.5 µM | DMS-114 8.05 µM | XF498 12.4 µM | HOP-18 22.8 µM | M19-MEL 19.2 µM | DLD-1 5.65 µM

CC12CCC(=O)N1c1cnccc1N2 (stereo not given)
inactive: DMS-273 > 100 µM | SNB-78 > 100 µM | DMS-114 > 100 µM | DLD-1 > 100 µM | LXFL 529 > 100 µM

O=C(NN1C(=O)CSC1c1ccc(C(F)(F)F)cc1)c1ccncc1 (stereo not given)
inactive: DMS-273 > 100 µM | SNB-78 > 31.6 µM | DMS-114 > 100 µM | XF498 > 100 µM | HOP-18 > 100 µM | M19-MEL > 100 µM | DLD-1 > 100 µM

O=c1oc2ccccc2n1P(=O)(Oc1ccc(Cl)cc1)n1c(=O)oc2ccccc21
inactive: DMS-273 78.9 µM | SNB-78 > 100 µM | DMS-114 > 100 µM | HOP-18 > 100 µM | M19-MEL > 100 µM | DLD-1 > 100 µM

CCCCCCCCCCCCCCCc1nnc(S)[nH]1
inactive: SNB-78 > 100 µM | DMS-114 60.4 µM | XF498 > 100 µM | M19-MEL > 100 µM | DLD-1 > 10 µM | LXFL 529 30.5 µM

C=C1CC[C@@H](Br)C(C)(C)[C@]12CCC(C)(O)C(Cl)C2 (stereo not given in full)
inactive: DMS-273 18.8 µM | SNB-78 52.5 µM | DMS-114 17.2 µM | HOP-18 18.8 µM | M19-MEL 18.8 µM | RXF 631 18.5 µM | DLD-1 17.5 µM

CCOC(=O)CCc1c(C)c2c(O)cc(O)cc2oc1=O
inactive: DMS-273 > 100 µM | SNB-78 > 100 µM | XF498 > 100 µM | HOP-18 > 80.9 µM | M19-MEL > 100 µM | DLD-1 > 100 µM

Nc1c(S(=O)(=O)O)cc(S(=O)(=O)O)c2ccc(/N=N/c3ccc(/C=C/c4ccc(/N=N/c5ccc6c(S(=O)(=O)O)cc(S(=O)(=O)O)c(N)c6c5O)cc4S(=O)(=O)O)c(S(=O)(=O)O)c3)c(O)c12
inactive: DMS-273 > 100 µM | SNB-78 > 83.4 µM | DMS-114 > 100 µM | XF498 > 46.6 µM | HOP-18 > 100 µM | M19-MEL > 100 µM | DLD-1 > 100 µM

CCOC(=O)/C=C1/C(CCCOCc2ccccc2)C2CCCC23CC2(CCN13)OCCO2 (stereo not given)
inactive: DMS-273 16.8 µM | SNB-78 25.9 µM | DMS-114 13.9 µM | XF498 12.3 µM | HOP-18 21.3 µM | M19-MEL 19.6 µM | RXF 631 30.1 µM | DLD-1 19 µM | LXFL 529 22.2 µM
